Assay results reported in patent US10206394B2, “Herbicidal compounds” (Syngenta Participations AG, priority 2014, dated 2019).
Where two headings read alike, the source gives them in different places.

Experiments:
Assay in all cases: Glasshouse assay for herbicidal activity (pre- and post-emergence), percentage phytotoxicity
Format in all cases: in vivo
[1] = tested on: Alopecurus myosuroides (ALOMY); conditions: Alopecurus myosuroides
Method in brief: (§1)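 Pot-grown, standard soil. PRE: spray 1 d post-sowing; POST: ~12 d. Glasshouse 24/18 °C (warm spp.) / 20/16 °C (cool spp.), 16 h light, 65% RH, watered 2×/day. Visual % damage, 20 DAA PRE, 15 DAA POST.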

Avena fatua (AVEFA) = conditions: Avena fatua
Method in brief: as §1

[2] = tested on: Echinochloa crus-galli (ECHCG); conditions: Echinochloa crus-galli
Method in brief: as §1

Lolium perenne (LOLPE) = conditions: Lolium perenne
Method in brief: as §1

[3] = post-emergence, 360 h, 250 g/ha, post-emergence, 15 DAA, visual assessment (100%=total damage, 0%=no damage), read-out: Post-emergence herbicidal activity (percentage phytotoxicity) ALOMY POST
[4] = pre-emergence, 480 h, 250 g/ha, pre-emergence, 20 DAA, visual assessment (100%=total damage, 0%=no damage), read-out: Pre-emergence herbicidal activity (percentage phytotoxicity) ALOMY PRE
[5] = post-emergence, 360 h, 250 g/ha, post-emergence, 15 DAA, visual assessment (100%=total damage, 0%=no damage), read-out: Post-emergence herbicidal activity (percentage phytotoxicity) AVEFA POST
[6] = pre-emergence, 480 h, 250 g/ha, pre-emergence, 20 DAA, visual assessment (100%=total damage, 0%=no damage), read-out: Pre-emergence herbicidal activity (percentage phytotoxicity) AVEFA PRE
[7] = post-emergence, 360 h, 250 g/ha, post-emergence, 15 DAA, visual assessment (100%=total damage, 0%=no damage), read-out: Post-emergence herbicidal activity (percentage phytotoxicity) ECHCG POST
[8] = pre-emergence, 480 h, 250 g/ha, pre-emergence, 20 DAA, visual assessment (100%=total damage, 0%=no damage), read-out: Pre-emergence herbicidal activity (percentage phytotoxicity) ECHCG PRE
[9] = post-emergence, 360 h, 250 g/ha, post-emergence, 15 DAA, visual assessment (100%=total damage, 0%=no damage), read-out: Post-emergence herbicidal activity (percentage phytotoxicity) LOLPE POST
[10] = pre-emergence, 480 h, 250 g/ha, pre-emergence, 20 DAA, visual assessment (100%=total damage, 0%=no damage), read-out: Pre-emergence herbicidal activity (percentage phytotoxicity) LOLPE PRE
[11] = post-emergence, 360 h, POST-emergence, rate 250 g/ha, visual score 15 DAA (100%=total damage, 0%=no damage), read-out: Post-emergence herbicidal activity (percentage phytotoxicity) ALOMY POST
[12] = pre-emergence, 480 h, PRE-emergence, rate 250 g/ha, visual score 20 DAA (100%=total damage, 0%=no damage), read-out: Pre-emergence herbicidal activity (percentage phytotoxicity) ALOMY PRE
[13] = post-emergence, 360 h, POST-emergence, rate 250 g/ha, visual score 15 DAA (100%=total damage, 0%=no damage), read-out: Post-emergence herbicidal activity (percentage phytotoxicity) AVEFA POST
[14] = pre-emergence, 480 h, PRE-emergence, rate 250 g/ha, visual score 20 DAA (100%=total damage, 0%=no damage), read-out: Pre-emergence herbicidal activity (percentage phytotoxicity) AVEFA PRE
[15] = post-emergence, 360 h, POST-emergence, rate 250 g/ha, visual score 15 DAA (100%=total damage, 0%=no damage), read-out: Post-emergence herbicidal activity (percentage phytotoxicity) ECHCG POST
[16] = pre-emergence, 480 h, PRE-emergence, rate 250 g/ha, visual score 20 DAA (100%=total damage, 0%=no damage), read-out: Pre-emergence herbicidal activity (percentage phytotoxicity) ECHCG PRE
[17] = post-emergence, 360 h, POST-emergence, rate 250 g/ha, visual score 15 DAA (100%=total damage, 0%=no damage), read-out: Post-emergence herbicidal activity (percentage phytotoxicity) LOLPE POST
[18] = pre-emergence, 480 h, PRE-emergence, rate 250 g/ha, visual score 20 DAA (100%=total damage, 0%=no damage), read-out: Pre-emergence herbicidal activity (percentage phytotoxicity) LOLPE PRE

Row | SMILES | pest or weed control at 250 g/ha [1, 3] [%] | pest or weed control at 250 g/ha [1, 4] [%] | pest or weed control at 250 g/ha (Avena fatua (AVEFA); [5]) [%] | pest or weed control at 250 g/ha (Avena fatua (AVEFA); [6]) [%] | pest or weed control at 250 g/ha [2, 7] [%] | pest or weed control at 250 g/ha [2, 8] [%] | pest or weed control at 250 g/ha (Lolium perenne (LOLPE); [9]) [%] | pest or weed control at 250 g/ha (Lolium perenne (LOLPE); [10]) [%] | pest or weed control at 250 g/ha [1, 11] [%] | pest or weed control at 250 g/ha [1, 12] [%] | pest or weed control at 250 g/ha (Avena fatua (AVEFA); [13]) [%] | pest or weed control at 250 g/ha (Avena fatua (AVEFA); [14]) [%] | pest or weed control at 250 g/ha [2, 15] [%] | pest or weed control at 250 g/ha [2, 16] [%] | pest or weed control at 250 g/ha (Lolium perenne (LOLPE); [17]) [%] | pest or weed control at 250 g/ha (Lolium perenne (LOLPE); [18]) [%] | further results
1 | CC(C)=CCNC(=O)CC1CC(=O)C(c2c(C)cc(C)cc2C)C1=O (stereo not drawn) [Compound B163] | 80 | 90 | 80 | 50 | 90 | 90 | 80 | 100 |  |  |  |  |  |  |  |  | 
2 | Cc1cc(Br)cc(C)c1C1C(=O)CC(CC(=O)NCC2CC2(Cl)Cl)C1=O (stereo not drawn) [Compound B141] | 80 | 90 | 90 | 60 | 80 | 70 | 80 | 80 |  |  |  |  |  |  |  |  | 
3 | Cc1cc(-c2ncc(F)cn2)cc(C)c1C1C(=O)CC(CC(=O)NCc2ccccc2)C1=O (stereo not drawn) [Compound B263] |  |  |  |  |  |  |  |  | 100 | 90 | 100 | 80 | 100 | 100 | 100 | 80 | 
4 | CC#Cc1cc(C)c(C2C(=O)CC(CC(=O)NCCCC)C2=O)c(C)c1 (stereo not drawn) [Compound A29] |  |  |  |  |  |  |  |  |  |  |  |  |  |  |  |  | pest or weed control at 250 g/ha ([1]; post-emergence, 360 h, Rate 250 g/ha, post-emergence, assessed visually 15 DAA, 100%=total damage, 0%=no damage, read-out: Post-emergence herbicidal activity (percentage phytotoxicity) ALOMY POST): 100%; pest or weed control at 250 g/ha ([1]; pre-emergence, 480 h, Rate 250 g/ha, pre-emergence, assessed visually 20 DAA, 100%=total damage, 0%=no damage, read-out: Pre-emergence herbicidal activity (percentage phytotoxicity) ALOMY PRE): 100%; pest or weed control at 250 g/ha (Avena fatua (AVEFA); post-emergence, 360 h, Rate 250 g/ha, post-emergence, assessed visually 15 DAA, 100%=total damage, 0%=no damage, read-out: Post-emergence herbicidal activity (percentage phytotoxicity) AVEFA POST): 100%; pest or weed control at 250 g/ha (Avena fatua (AVEFA); pre-emergence, 480 h, Rate 250 g/ha, pre-emergence, assessed visually 20 DAA, 100%=total damage, 0%=no damage, read-out: Pre-emergence herbicidal activity (percentage phytotoxicity) AVEFA PRE): 90%; pest or weed control at 250 g/ha ([2]; post-emergence, 360 h, Rate 250 g/ha, post-emergence, assessed visually 15 DAA, 100%=total damage, 0%=no damage, read-out: Post-emergence herbicidal activity (percentage phytotoxicity) ECHCG POST): 100%; pest or weed control at 250 g/ha ([2]; pre-emergence, 480 h, Rate 250 g/ha, pre-emergence, assessed visually 20 DAA, 100%=total damage, 0%=no damage, read-out: Pre-emergence herbicidal activity (percentage phytotoxicity) ECHCG PRE): 100%; pest or weed control at 250 g/ha (Lolium perenne (LOLPE); post-emergence, 360 h, Rate 250 g/ha, post-emergence, assessed visually 15 DAA, 100%=total damage, 0%=no damage, read-out: Post-emergence herbicidal activity (percentage phytotoxicity) LOLPE POST): 100%; pest or weed control at 250 g/ha (Lolium perenne (LOLPE); pre-emergence, 480 h, Rate 250 g/ha, pre-emergence, assessed visually 20 DAA, 100%=total damage, 0%=no damage, read-out: Pre-emergence herbicidal activity (percentage phytotoxicity) LOLPE PRE): 100%
5 | CCCCCCCNC(=O)CC1CC(=O)C(c2c(C)cc(C)cc2C)C1=O (stereo not drawn) [Compound A178] |  |  |  |  |  |  |  |  |  |  |  |  |  |  |  |  | pest or weed control at 250 g/ha ([1]; post-emergence, 360 h, post-emergence, 250 g/ha, 15 DAA, visual score (100%=total damage; 0%=no damage), read-out: ALOMY POST herbicidal activity (percentage phytotoxicity)): 70%; pest or weed control at 250 g/ha ([1]; pre-emergence, 480 h, pre-emergence, 250 g/ha, 20 DAA, visual score (100%=total damage; 0%=no damage), read-out: ALOMY PRE herbicidal activity (percentage phytotoxicity)): 20%; pest or weed control at 250 g/ha (Avena fatua (AVEFA); post-emergence, 360 h, post-emergence, 250 g/ha, 15 DAA, visual score (100%=total damage; 0%=no damage), read-out: AVEFA POST herbicidal activity (percentage phytotoxicity)): 70%; pest or weed control at 250 g/ha (Avena fatua (AVEFA); pre-emergence, 480 h, pre-emergence, 250 g/ha, 20 DAA, visual score (100%=total damage; 0%=no damage), read-out: AVEFA PRE herbicidal activity (percentage phytotoxicity)): 0%; pest or weed control at 250 g/ha ([2]; post-emergence, 360 h, post-emergence, 250 g/ha, 15 DAA, visual score (100%=total damage; 0%=no damage), read-out: ECHCG POST herbicidal activity (percentage phytotoxicity)): 40%; pest or weed control at 250 g/ha ([2]; pre-emergence, 480 h, pre-emergence, 250 g/ha, 20 DAA, visual score (100%=total damage; 0%=no damage), read-out: ECHCG PRE herbicidal activity (percentage phytotoxicity)): 80%; pest or weed control at 250 g/ha (Lolium perenne (LOLPE); post-emergence, 360 h, post-emergence, 250 g/ha, 15 DAA, visual score (100%=total damage; 0%=no damage), read-out: LOLPE POST herbicidal activity (percentage phytotoxicity)): 70%; pest or weed control at 250 g/ha (Lolium perenne (LOLPE); pre-emergence, 480 h, pre-emergence, 250 g/ha, 20 DAA, visual score (100%=total damage; 0%=no damage), read-out: LOLPE PRE herbicidal activity (percentage phytotoxicity)): 80%
6 | Cc1cc(-c2ncc(F)cn2)cc(C)c1C1C(=O)CC(CC(=O)N(C)Cc2cccc(F)c2)C1=O (stereo not drawn) [Compound B273] |  |  |  |  |  |  |  |  | 100 | 90 | 100 | 90 | 100 | 100 | 100 | 100 | 
